Key:
FIV-p24 antigen [1] = test: Oral secretion SIgA antibody titers (ELISA) after vaccination of cats; type: in vivo, feline immunodeficiency virus (FIV)
Method: (§1) Animals: Eleven (11) female outbred cats>24 weeks old that were free of FIV, feline leukemia virus (FeLV) and feline infectious peritonitis virus were employed. The animals were restrained for the application of test articles to mucous membranes and collection of blood and mucosal secretions. Sedation, if necessary, was induced by subcutaneous administration of ketamine hydrochloride (22 mg/kg) and acepromazine maleate (0.1 mg/kg). Euthanasia was accomplished with a lethal overdose of barbiturates. All activities were approved by the Institutional Animal Care and Use Committee and supervised by veterinary staff.
(§2) Vaccine Preparation: Fel-O-Vax FIV (Fort Dodge Animal Health, Fort Dodge, Iowa) and A(1-7) was combined in a constant volume of 2% hydroxyethyl cellulose (2% HEC). The range of concentrations of A(1-7) ranged from 0 to 10 mg/mL with a constant 0.33 mL of Fel-O-Vax FIV suspended in each mL of the gel applied for vaccination purposes. Two control animals received intramuscular Fel-O-Vax FIV at baseline, week 3 and week 5. One control animal had mucosal vaccination with Fel-O-Vax alone suspended in the 2% HEC without A(1-7) and one control animal received intramuscular Fel-O-Vax FIV with 0.3 mg/kg of A(1-7) at baseline, week 3 and week 5.
(§3) Delivery of angiotensin(1-7) and FIV vaccine to mucosal surfaces: 2% HEC, a viscous gel, was used as the vehicle for the topical delivery of angiotensin(1-7) and FIV vaccine. The topical vaccine was applied to the mucosal surface weekly for 6 consecutive weeks. 1.0 mL was applied to the muzzle for oral mucosal vaccination and 1.0 mL and 0.2 mL was instilled in the rectal and vaginal vaults, respectively for mucosal vaccination at these sites.
Measurement of Local Immune Response: The Weck-Cel Surgical Spear (Windsor Biomedical, Newton, N.H.) was used to obtain secretions. Once inserted, the sponge is allowed to remain in place for 5 minutes. The secretions were extracted by centrifugation with 300 μL of a buffer solution. The buffer solution is prepared by mixing 50 μL of 100× protease inhibitor cocktail and 250 μL of 10% Igepal (Sigma, St Louis, Mo., U.S.A.) with 4.7 ml of phosphate-buffered saline (PBS) containing 0.25% bovine serum albumin (BSA, Fraction V; Sigma). The 100× protease inhibitor cocktail contains 100 μg/mL aprotinin, 500 μg/mL leupeptin, 100 μg/mL bestatin (all Sigma), and 50 μg/mL 4-(2-Aminoethyl)-benzenesulfonyl fluoride hydrochloride (Roche Applied Sciences, U.S.A.) in phosphate buffered saline.
(§4) The local immune response in mucosal secretions was evaluated against the homologous FIV-p24 antigen (Cell Biolabs, Inc, San Diego, Calif.) or the heterologous HIV-gp120 antigen (ImmunoDiagnostics, Inc, Woburn, Mass.). Plates were prepared with 50 ng/mL FIV-p24 antigen or with 500 ng/mL HIV-gp120 antigen (Bachem Americans, Inc, Torrance, Calif.) incubated over night at 4° C., washed and the target sample added and incubated overnight again at 4° C. The plates were washed and the indicator goat anti-feline IgG (Accurate Chemical & Scientific Corp., Westbury, N.Y., working titer 1:10,000) or goat anti-feline IgA (Accurate Chemical & Scientific Corp., Westbury, N.Y., working titer 1:1,000) added and incubated for 24 hours at 4° C. Following a final wash, substrate solution was added. The stop solution was added after 15 minutes for the IgG reaction and after 30 minutes for the IgA reaction. Plates were read at 450 nm.

FIV-p24 antigen [2] = test: Serum IgG antibody titers (ELISA) after vaccination of cats; type: in vivo, feline immunodeficiency virus (FIV); details: for Serum IgG anti-FIVp24 antigen Titers: lowest dilution 1:20
Method: as §1, §2, §3, §4

HIV-gp120 antigen = test: Vaginal secretion SIgA antibody titers (ELISA) after vaccination of cats; type: in vivo, human immunodeficiency virus (HIV); details: for SIgA Anti-HIV gp120: vaginal, Week 8, lowest dilution 1:4, elution factor 300-fold
Method: as §1, §2, §3
Measurement of Local Immune Response: The Weck-Cel Surgical Spear (Windsor Biomedical, Newton, N.H.) was used to obtain secretions. […]
(§5) The local immune response in mucosal secretions was evaluated against the homologous FIV-p24 antigen (Cell Biolabs, Inc, San Diego, Calif.) or the heterologous HIV-gp120 antigen (ImmunoDiagnostics, Inc, Woburn, Mass.). […] Plates were read at 450 nm.

[3] = system: mucosal SIgA antibody production; test: Local (mucosal) secretory IgA immune response after vaccination of cats, general statements; type: in vivo
Method: as §1
Vaccine Preparation: Fel-O-Vax FIV (Fort Dodge Animal Health, Fort Dodge, Iowa) and A(1-7) was combined in a constant volume of 2% hydroxyethyl cellulose (2% HEC). The range of concentrations of A(1-7) ranged from 0 to 10 mg/mL with a constant 0.33 mL of Fel-O-Vax FIV suspended in each mL of the gel applied for vaccination purposes. Two control animals received intramuscular Fel-O-Vax FIV at baseline, week 3 and week 5. […]
as §5

## Asp-Arg-Val-Tyr-Ile-His-Pro (DRVYIHP) [A(1-7)]
FIV-p24 antigen [1]; IM Fel-O-Vax FIV + 0.3 mg/kg A(1-7), Week 2, lowest dilution Undilute
  SIgA Anti-FIV-p24: Negative
FIV-p24 antigen [1]; IM Fel-O-Vax FIV + 0.3 mg/kg A(1-7), Week 4, lowest dilution Undilute
  SIgA Anti-FIV-p24: Undilute
FIV-p24 antigen [1]; IM Fel-O-Vax FIV + 0.3 mg/kg A(1-7), Week 8, lowest dilution Undilute
  SIgA Anti-FIV-p24: Undilute
FIV-p24 antigen [1]; topical Fel-O-Vax FIV + 0.1 A(1-7) in 2% HEC, Week 2, lowest dilution Undilute
  SIgA Anti-FIV-p24: Negative
FIV-p24 antigen [1]; topical Fel-O-Vax FIV + 0.1 A(1-7) in 2% HEC, Week 4, lowest dilution Undilute
  SIgA Anti-FIV-p24: Negative
FIV-p24 antigen [1]; topical Fel-O-Vax FIV + 0.1 A(1-7) in 2% HEC, Week 6, lowest dilution Undilute
  SIgA Anti-FIV-p24: Undilute
FIV-p24 antigen [1]; topical Fel-O-Vax FIV + 0.1 A(1-7) in 2% HEC, Week 8, lowest dilution Undilute
  SIgA Anti-FIV-p24: Negative
FIV-p24 antigen [1]; topical Fel-O-Vax FIV + 0.2 A(1-7) in 2% HEC, Week 2, lowest dilution Undilute
  SIgA Anti-FIV-p24: Negative
FIV-p24 antigen [1]; topical Fel-O-Vax FIV + 0.2 A(1-7) in 2% HEC, Week 4, lowest dilution Undilute
  SIgA Anti-FIV-p24: Negative
FIV-p24 antigen [1]; topical Fel-O-Vax FIV + 0.2 A(1-7) in 2% HEC, Week 6, lowest dilution Undilute
  SIgA Anti-FIV-p24: Negative
FIV-p24 antigen [1]; topical Fel-O-Vax FIV + 0.2 A(1-7) in 2% HEC, Week 8, lowest dilution Undilute
  SIgA Anti-FIV-p24: Negative
FIV-p24 antigen [1]; topical Fel-O-Vax FIV + 0.3 A(1-7) in 2% HEC, Week 2, lowest dilution Undilute
  SIgA Anti-FIV-p24: Negative
FIV-p24 antigen [1]; topical Fel-O-Vax FIV + 0.3 A(1-7) in 2% HEC, Week 4, lowest dilution Undilute
  SIgA Anti-FIV-p24: Negative
FIV-p24 antigen [1]; topical Fel-O-Vax FIV + 0.3 A(1-7) in 2% HEC, Week 6, lowest dilution Undilute
  SIgA Anti-FIV-p24: Negative
FIV-p24 antigen [1]; topical Fel-O-Vax FIV + 0.3 A(1-7) in 2% HEC, Week 8, lowest dilution Undilute
  SIgA Anti-FIV-p24: Negative
FIV-p24 antigen [1]; topical Fel-O-Vax FIV + 0.4 A(1-7) in 2% HEC, Week 4, lowest dilution Undilute
  SIgA Anti-FIV-p24: Undilute
FIV-p24 antigen [1]; topical Fel-O-Vax FIV + 0.4 A(1-7) in 2% HEC, Week 6, lowest dilution Undilute
  SIgA Anti-FIV-p24: Negative
FIV-p24 antigen [1]; topical Fel-O-Vax FIV + 5.0 A(1-7) in 2% HEC, Week 2, lowest dilution Undilute
  SIgA Anti-FIV-p24: Undilute
FIV-p24 antigen [1]; topical Fel-O-Vax FIV + 7.5 A(1-7) in 2% HEC, Week 4, lowest dilution Undilute
  SIgA Anti-FIV-p24: Negative
FIV-p24 antigen [1]; topical Fel-O-Vax FIV + 10.0 A(1-7) in 2% HEC, Week 2, lowest dilution Undilute
  SIgA Anti-FIV-p24: Negative
FIV-p24 antigen [1]; topical Fel-O-Vax FIV + 10.0 A(1-7) in 2% HEC, Week 4, lowest dilution Undilute
  SIgA Anti-FIV-p24: Negative
FIV-p24 antigen [1]; topical Fel-O-Vax FIV + 10.0 A(1-7) in 2% HEC, Week 6, lowest dilution Undilute
  SIgA Anti-FIV-p24: Negative
FIV-p24 antigen [1]; topical Fel-O-Vax FIV + 10.0 A(1-7) in 2% HEC, Week 8, lowest dilution Undilute
  SIgA Anti-FIV-p24: Negative
FIV-p24 antigen [2]; topical Fel-O-Vax FIV + 0.1 A(1-7) in 2% HEC, Week 4
  Serum IgG anti-FIVp24 antigen Titers: Negative
FIV-p24 antigen [2]; topical Fel-O-Vax FIV + 0.1 A(1-7) in 2% HEC, Week 8
  Serum IgG anti-FIVp24 antigen Titers: Negative
FIV-p24 antigen [2]; topical Fel-O-Vax FIV + 0.2 A(1-7) in 2% HEC, Week 4
  Serum IgG anti-FIVp24 antigen Titers: Negative
FIV-p24 antigen [2]; topical Fel-O-Vax FIV + 0.4 A(1-7) in 2% HEC, Week 4
  Serum IgG anti-FIVp24 antigen Titers: Negative
FIV-p24 antigen [2]; topical Fel-O-Vax FIV + 0.4 A(1-7) in 2% HEC, Week 8
  Serum IgG anti-FIVp24 antigen Titers: Negative
FIV-p24 antigen [2]; topical Fel-O-Vax FIV + 5.0 A(1-7) in 2% HEC, Week 2
  Serum IgG anti-FIVp24 antigen Titers: Negative
FIV-p24 antigen [2]; topical Fel-O-Vax FIV + 5.0 A(1-7) in 2% HEC, Week 4
  Serum IgG anti-FIVp24 antigen Titers: Negative
FIV-p24 antigen [2]; topical Fel-O-Vax FIV + 5.0 A(1-7) in 2% HEC, Week 6
  Serum IgG anti-FIVp24 antigen Titers: Negative
FIV-p24 antigen [2]; topical Fel-O-Vax FIV + 5.0 A(1-7) in 2% HEC, Week 8
  Serum IgG anti-FIVp24 antigen Titers: Negative
FIV-p24 antigen [2]; topical Fel-O-Vax FIV + 7.5 A(1-7) in 2% HEC, Week 2
  Serum IgG anti-FIVp24 antigen Titers: Negative
FIV-p24 antigen [2]; topical Fel-O-Vax FIV + 7.5 A(1-7) in 2% HEC, Week 4
  Serum IgG anti-FIVp24 antigen Titers: Negative
FIV-p24 antigen [2]; topical Fel-O-Vax FIV + 7.5 A(1-7) in 2% HEC, Week 6
  Serum IgG anti-FIVp24 antigen Titers: Negative
FIV-p24 antigen [2]; topical Fel-O-Vax FIV + 7.5 A(1-7) in 2% HEC, Week 8
  Serum IgG anti-FIVp24 antigen Titers: Negative
FIV-p24 antigen [2]; topical Fel-O-Vax FIV + 10.0 A(1-7) in 2% HEC, Week 2
  Serum IgG anti-FIVp24 antigen Titers: Negative
FIV-p24 antigen [2]; topical Fel-O-Vax FIV + 10.0 A(1-7) in 2% HEC, Week 4
  Serum IgG anti-FIVp24 antigen Titers: Negative
FIV-p24 antigen [2]; topical Fel-O-Vax FIV + 10.0 A(1-7) in 2% HEC, Week 6
  Serum IgG anti-FIVp24 antigen Titers: Negative
FIV-p24 antigen [2]; topical Fel-O-Vax FIV + 10.0 A(1-7) in 2% HEC, Week 8
  Serum IgG anti-FIVp24 antigen Titers: Negative
FIV-p24 antigen [2]; topical vaccination, increasing dose levels of A(1-7)
  dose response effect on serum IgG antibody titers to FIVp24 antigen: no discernible dose response effect
HIV-gp120 antigen; Topical application of FIV antigen with A(1-7)
  SIgA-anti-HIV-gp120 antibodies in vaginal secretions: substantial
HIV-gp120 antigen; topical Fel-O-Vax FIV + 0.1 A(1-7) in 2% HEC
  SIgA Anti-HIV gp120: Negative
HIV-gp120 antigen; topical Fel-O-Vax FIV + 5.0 A(1-7) in 2% HEC
  SIgA Anti-HIV gp120: Negative
[3]; angiotensin (1-7) co-administered with killed FIV (Fel-O-Vax FIV) vaccine
  local secretory IgA immune responses: dramatic increase
[3]; following A(1-7)+FIV immunization, two month period of observation
  induction of SIgA antibody production at the mucosal surface: sustained
